pIC50: −log10 of the molar value. Like-named read-outs stand apart in the source and are kept apart here.

Data set [1] concerns murine melanoma cells B16-F1. The experiment in a line: Melanin production by murine melanoma cells B16-F1. It is filed as cell-based. Particulars: Mus musculus, B16-F1, 1 nM α-MSH, 48 hours. The method, then: Selected compounds were then tested for the ability to suppress melanin production by the murine melanoma cells B16-F1 as detailed below.
Murine melanoma cells B16-F1 were purchased from the ATCC (Cat #CRL-6323). Cell Titer96 AqueousOne Solution was purchased from Promega (Cat #G3582). 0.2 μm pore size, low protein binding filters were purchased from PALL Life Sciences. (Cat #PN4454).
Alpha-MSH was purchased from the Sigma Aldrich (Cat #M4135-1MG). All tissue culture reagents were purchased from VWR (phenol-red-free DMEM, cat #12001-630, L-glutamine, cat #12001-698) and Fisher Scientific (Trypsin-EDTA, cat #25-200-056).
The B16-F1 cells were maintained in cell growth media (DMEM/High Glucose supplemented with glutamine, 10% fetal bovine serum, 50 units/ml penicillin, and 50 units/mL of streptomycin) at 37° C. in a humidified atmosphere of 95% air and 5% CO2.
(§1) All test compounds were initially dissolved in 100% DMSO at a concentration of 400 mM. Then, 6 μL of 400 mM test compounds were added to 1.2 mL of the cell growth media giving a final concentration of 2 mM for the test compound and concentration of 0.5% for DMSO. The compounds were centrifuged for 1 h at 20,000×g. Supernatants (1 mL) were collected and filtered through sterile 0.2 μm filters. The compounds were serially diluted in two-fold increments in the sterile cell growth media supplemented with 0.5% DMSO, thus keeping the concentration of DMSO constant for all samples. These serially diluted compounds were subsequently used as two-fold concentrated stock solutions in the melanin production and cell viability assays. Equal volumes of 2× compounds were mixed with media containing 2 nM α-MSH to give a final concentration of 1 nM α-MSH, 0.5% DMSO, and 1× concentration of test compounds.
B16-F1 cells were seeded into the wells of clear-bottom 24-well plates at 50,000 cells per well, in 0.5 mL of cell growth media. On the following day, 0.5 mL of freshly prepared test compounds containing α-MSH were added to the wells. The cells were maintained at 37° C. in a humidified atmosphere of 95% air and 5% CO2 for 48 hours. At the end of the incubation period, melanin-containing conditioned media was removed from the cells and transferred to another plate. To measure melanin content the light absorbance of conditioned media was taken at 492 nm using a TECAN Genios plate reader.
(§2) More than 90% percent of the melanin produced by cultured melanoma cells is found in extra-cellular media. Therefore, at the end of the experiment melanin-containing media was collected and relative amounts of melanin were determined by absorption at 492 nm. Viability of cells was determined by a commonly used colorimetric procedure that is based on conversion of the tetrazolium compounds to colored formazan products (using Promega's CellTiter96 AqueousOne assay). Dehydrogenase enzymes in metabolically active cells accomplish this conversion, and the amount of formazan product is directly proportional to the number of living cells in culture. Mean (n=2) absorption of wells containing no cells was subtracted as blanks. The results were computed as percent of wells that contained the cells but no test compounds.

Data set [2] has as its system murine melanoma cells B16-F1. The experiment in a line: Cell viability, tetrazolium reduction assay. It is filed as cell-based. The method, then:
as §1
Viability of cells was measured using standard tetrazolium reduction assay based on redox potential of live cells. Cells were seeded in a clear-bottom 96-well plate in RPMI 1640 media with Glutamax (Fisher Scientific, cat #61870036) at a density of 5,000 cells/well. Cells were treated with test compounds dissolved in 100 μL RPMI 1640 media and incubated for 48 hours at 37° C. in a humidified atmosphere of 95% air and 5% CO2.
After incubation, 20 μL of Aqueous One Solution were added to each well and the plate was returned to the incubator for 30 minutes. Conversion of tetrazolium was monitored by measuring absorbance of cell wells at 492 nm using a TECAN Genios plate reader.
as §2

The target in data set [3] is T1, COX-2 (Homo sapiens, UniProt P35354).
T1 construct: purchased Cayman Chemical 701050
T1 sequence (P35354 18-604): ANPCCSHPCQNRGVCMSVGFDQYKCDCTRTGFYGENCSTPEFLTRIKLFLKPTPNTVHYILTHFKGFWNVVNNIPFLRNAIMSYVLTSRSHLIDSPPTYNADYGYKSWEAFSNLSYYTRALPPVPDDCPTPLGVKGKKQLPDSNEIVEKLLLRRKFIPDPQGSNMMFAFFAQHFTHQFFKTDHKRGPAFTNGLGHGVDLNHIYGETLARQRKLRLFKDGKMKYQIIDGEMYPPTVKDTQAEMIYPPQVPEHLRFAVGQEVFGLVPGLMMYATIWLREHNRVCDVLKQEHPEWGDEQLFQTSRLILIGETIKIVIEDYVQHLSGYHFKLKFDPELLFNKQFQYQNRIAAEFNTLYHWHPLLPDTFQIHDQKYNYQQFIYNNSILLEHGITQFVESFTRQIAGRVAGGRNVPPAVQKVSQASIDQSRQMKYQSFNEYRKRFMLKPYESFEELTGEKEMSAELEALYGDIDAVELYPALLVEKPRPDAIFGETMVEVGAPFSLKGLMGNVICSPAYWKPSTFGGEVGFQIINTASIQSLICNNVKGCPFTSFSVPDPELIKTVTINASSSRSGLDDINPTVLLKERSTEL
As to the kind of experiment: COX-2 enzymatic inhibition assay. It is filed as biochemical. The following applies: for pIC50: read-out: Anti-inflammatory (IC50) COX-2. The method, then:
In order to screen for compounds that inhibited COX-1 and Cox-2 activity, enzymatic inhibition assay kits were purchased from Cayman Chemical (cat #701050). Briefly, the compound being examined was treated against a fixed amount of COX-1 and COX-2 enzymes. A cleavable, peroxide chromophore was included in the assay to visualize the peroxidase activity of each enzyme in presence of arachidonic acid as […]. Typically, assays were performed in 96-well format. Each inhibitor, taken from a 1 M stock solution in 100% DMSO, was tested in duplicate at room temperature using the following range of concentrations: 1.9, 3.9, 7.8, 15.6, 31.2, 62.5, 125, 250, 500, and 1000 μM. To each well, 150 μL of Assay Buffer was added along with 10 μL of Hemin, 10 μL of inhibitor diluted in DMSO and 10 μL of either COX-1 or COX-2 enzyme. The compounds were incubated for 5 minutes at room temperature, followed by the addition of 20 μL of Colormietric Substrate solution and 20 μL of arachidonic acid solution to initiate the reaction. The plate was mixed and incubated for 2 minutes before reading the absorbance at 590 nm. The inhibitor concentration vs. % of inhibition was plotted and the IC50 determined.

Where [4] appears, read: FIGS. 2-8, read-out: IC50, inhibition in the production of melanin.
Setting [5] is: Tables 1-3, read-out: MELANIN PRODUCTION

`CC(C)=CCCC(C)=Cc1ccc(O)cc1` (mixture of isomers) [Compound 1, (E/Z)-4-(2,6-dimethylhepta-1,5-dienyl)phenol]: the pIC50 in data set [1] (setting [4]) and in data set [1] (setting [5]) was 3.80 each time. Further, the “CELL VIABILITY” value in data set [2] (48 hours, Tables 1-3) turned out to be 269 µM. Further, the “LD50, cell viability” value in data set [2] (mouse, 48 h) was determined as 269 µM. Besides, the “Anti-inflammatory (IC50) COX-2” value in data set [3] is on record as “Not active”.

As to `CC(C)=CCC/C(C)=C/c1cc(O)cc(O)c1` [Compound 4, (E/Z)-5-(2,6-dimethylhepta-1,5-dienyl)benzene-1,3-diol], the pIC50 was 4.14 in data set [1] (setting [4]), 4.14 in data set [1] (setting [5]) and 3.61 in data set [3]. In addition, the “CELL VIABILITY” value in data set [2] (mouse, 48 h) worked out at 127 µM.

Consider `CC(C)=CCCC(C)/C=C/c1ccc(O)cc1` (centres unmarked) [Compound 5, (E)-4-(3,7-dimethylocta-1,6-dienyl)phenol], for which the pIC50 in data set [1] (setting [5]) and in data set [3] was 4.14 throughout. In addition, in data set [2] (mouse, 48 h), the “CELL VIABILITY” value is 50 µM.

In the case of `CC(C)=CCCC(C)/C=C/c1ccc(O)cc1O` (centres unmarked) [Compound 6, (E)-4-(3,7-dimethylocta-1,6-dienyl) benzene-1,3-diol], the pIC50 in data set [1] (setting [4]) was 5.05; in data set [1] (setting [5]) it was 5.05; in data set [3], 3.79. The “CELL VIABILITY” value in data set [2] (48 hours, Tables 1-3) was 233 µM. Further, in data set [2] (mouse, 48 h), the “LD50, cell viability” value was 233 µM.

Turning to `CC(C)=CCCC(C)/C=C/c1cc(O)cc(O)c1` (centres unmarked) [Compound 7, (E)-5-(3,7-dimethylocta-1,6-dienyl) benzene-1,3-diol], the pIC50 in data set [1] (setting [4]) was 4.01; in data set [1] (setting [5]), 4.01; in data set [3] it was 3.87. Also, the “CELL VIABILITY” value in data set [2] (48 hours, Tables 1-3) was determined as 152 µM. Also, the “LD50, cell viability” value in data set [2] (mouse, 48 h) amounted to 152 µM.

Take `CC(C)=CCCC(C)C/C=C\c1cc(O)cc(O)c1` (centres unmarked) [Compound 15, (Z)-5-(4,8-dimethylnona-1,7-dienyl) benzene-1,3-diol]: the figures for the pIC50 in data set [1] (setting [4]) and in data set [1] (setting [5]) were 4.13 and 3.80, respectively. For the same molecule, the “CELL VIABILITY” value in data set [2] (mouse, 48 h) was 269 µM. Further, the “Anti-inflammatory (IC50) COX-2” value in data set [3] is reported as “No Inhibition”.

(Values after US12358859B2, “Series of compounds for treatment of skin diseases and other conditions” (Unigen, Inc., priority 2018, dated 2025).)
